Assay results as given in patent US20200172483A1, “HETEROCYCLIC SMALL MOLECULE MODULATORS OF HUMAN STING” (Curadev Pharma Limited, priority 2017, published 2020).
Like-named read-outs stand apart in the source and are kept apart here.

Assays:
[1] = target: T1, WT/R232 STING protein (Homo sapiens, UniProt Q86WV6, H232R); assay: Luciferase reporter assay in HEK293T-hSTING-Luciferase cells (R232); assay type: cell-based; conditions: 20 hr stimulation, EC50 range
T1 construct: host or cells: HEK293T
In short: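 Readout is fold-induction over baseline of secreted luciferase, measured by luminescence after 20 hr compound stimulation. Cells: clonally selected HEK293T stably carrying hSTING (R232) and a luciferase reporter under five tandem ISREs fused to an ISG54 minimal promoter.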

[2] = target: T2, hSTING (HAQ) (Homo sapiens, UniProt Q86WV6, G230A/H232R/R293Q/R71H); assay: Luciferase reporter assay in HEK293T-hSTING-Luciferase cells (HAQ polymorph); assay type: cell-based; conditions: EC50 range
T2 construct: host or cells: HEK293T
In short: (§1)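 Clonal HEK293T lines stably expressing the hSTING variant (H232 or HAQ) plus an ISRE/ISG54-driven secreted luciferase reporter were stimulated with compounds for 20 hr. Supernatant luciferase measured by luminescence (Quanti-Luc).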

[3] = system: NF-κB pathway; assay: Reporter gene expression assay for NFκB axis in THP1-Dual cells (secreted SEAP); assay type: cell-based, human; conditions: 20 hr stimulation, QUANTI-Blue SEAP, EC50 range, read-out: THP-NFKB activity
In short: (§2)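 THP1-Dual cells (THP-1 monocytes with inducible NF-κB-SEAP and IRF-Lucia reporters; 5×10^5 cells) were stimulated with compounds for 20 hr. Secreted SEAP (QUANTI-Blue) and Lucia luciferase (QUANTI-Luc) were then measured in the supernatant. EC50 values are reported as ranges.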

[4] = system: IRF pathway; assay: Reporter gene expression assay for IRF axis in THP1-Dual cells (secreted Lucia luciferase); assay type: cell-based, human; conditions: 20 hr stimulation, QUANTI-Luc, EC50 range, read-out: THP-IRF activity
In short: as §2

[5] = target: T3, hSTING (H232) (Homo sapiens, UniProt Q86WV6); assay: Luciferase reporter assay in HEK293T-hSTING-Luciferase cells (H232/REF polymorph); assay type: cell-based; conditions: EC50 range
T3 construct: host or cells: HEK293T
In short: as §1

T2 sequence (Q86WV6 whole entry R71H/G230A/H232R/R293Q): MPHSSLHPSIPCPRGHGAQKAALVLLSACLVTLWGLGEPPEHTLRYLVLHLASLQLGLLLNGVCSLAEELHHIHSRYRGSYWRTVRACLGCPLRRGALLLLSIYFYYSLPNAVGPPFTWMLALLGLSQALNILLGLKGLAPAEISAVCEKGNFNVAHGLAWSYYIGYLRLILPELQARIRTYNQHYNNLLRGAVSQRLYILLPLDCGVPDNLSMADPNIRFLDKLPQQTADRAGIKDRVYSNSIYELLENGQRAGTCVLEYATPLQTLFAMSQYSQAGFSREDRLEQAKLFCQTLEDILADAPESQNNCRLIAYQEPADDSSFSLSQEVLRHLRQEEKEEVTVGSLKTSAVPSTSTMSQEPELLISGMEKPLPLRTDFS
T3 sequence (Q86WV6 whole entry): as the sequence (Q86WV6 whole entry R71H/G230A/H232R/R293Q) above, with H71R, A230G, R232H, Q293R counted along it
T1 sequence (Q86WV6 whole entry H232R): as the sequence (Q86WV6 whole entry R71H/G230A/H232R/R293Q) above, with H71R, A230G, Q293R counted along it

| Structure (SMILES) | EC50 [1] [µM] | EC50 [2] [µM] | EC50 ([3]; Homo sapiens, THP1-Dual, 20 h) [µM] | EC50 ([4]; Homo sapiens, THP1-Dual, 20 h) [µM] | EC50 [5] [µM] | EC50 [3] [µM] | EC50 [4] [µM] |
| --- | --- | --- | --- | --- | --- | --- | --- |
| Cc1ccc(CNC(=O)c2ccc3c(c2)N(Cc2c(C)cccc2F)C(=O)C3(C)C)o1 [Example 63, 1-(2-fluoro-6-methylbenzyl)-3,3-dimethyl-N-((5-methylfuran-2-yl)methyl)-2-oxoindoline-6-carboxamide] | ≤ 1 | 1 to 10 | > 10 | > 10 | 1 to 10 |  |  |
| CC1(C)C(=O)N(Cc2c(F)cccc2Cl)c2cc(C(=O)NCc3ccccc3F)ccc21 [Example 72, 1-(2-chloro-6-fluorobenzyl)-N-(2-fluorobenzyl)-3,3-dimethyl-2-oxoindoline-6-carboxamide] | ≤ 1 | 1 to 10 | 1 to 10 | > 10 | 1 to 10 |  |  |
| CC1(C)C(=O)N(Cc2c(F)cccc2Cl)c2cc(C(=O)NCc3cccc(F)c3)ccc21 [Example 12, 1-(2-chloro-6-fluorobenzyl)-N-(3-fluorobenzyl)-3,3-dimethyl-2-oxoindoline-6-carboxamide] | ≤ 1 | 1 to 10 | > 10 | > 10 | 1 to 10 |  |  |
| CC1(C)C(=O)N(Cc2c(F)cccc2Cl)c2cc(C(=O)NCc3ccc(F)cc3)ccc21 [Example 25, 1-(2-chloro-6-fluorobenzyl)-N-(4-fluorobenzyl)-3,3-dimethyl-2-oxoindoline-6-carboxamide] | ≤ 1 | 1 to 10 | 1 to 10 | > 10 | 1 to 10 |  |  |
| CC1(C)C(=O)N(Cc2cc(F)cc(F)c2)c2nc(C(=O)NCc3ccccc3)ccc21 [Example 191, N-benzyl-1-(3,5-difluorobenzyl)-3,3-dimethyl-2-oxo-2,3-dihydro-1H-pyrrolo[2,3-b]pyridine-6-carboxamide] | 1 to 10 | 1 to 10 | > 10 | > 10 | 1 to 10 |  |  |
| Cc1ccc(CNC(=O)c2ccc3c(c2)N(Cc2cccc(F)c2F)C(=O)C3(C)C)o1 [Example 61, 1-(2,3-difluorobenzyl)-3,3-dimethyl-N-((5-methylfuran-2-yl)methyl)-2-oxoindoline-6-carboxamide] | 1 to 10 | 1 to 10 | > 10 | > 10 | 1 to 10 |  |  |
| CC1(C)C(=O)N(Cc2c(F)cccc2Cl)c2cc(C(=O)NCc3ccc4occc4c3)ccc21 [Example 71, N-(benzofuran-5-ylmethyl)-1-(2-chloro-6-fluorobenzyl)-3,3-dimethyl-2-oxoindoline-6-carboxamide] | 1 to 10 | 1 to 10 | 1 to 10 | > 10 | 1 to 10 |  |  |
| CC1(C)C(=O)N(Cc2c(F)cccc2Cl)c2cc(C(=O)NCc3ccc4ccoc4c3)ccc21 [Example 90, N-(benzofuran-6-ylmethyl)-1-(2-chloro-6-fluorobenzyl)-3,3-dimethyl-2-oxoindoline-6-carboxamide] | ≤ 1 | 1 to 10 | 1 to 10 | 1 to 10 | 1 to 10 |  |  |
| Cc1ccc(CNC(=O)c2ccc3c(c2)N(Cc2c(F)cccc2Cl)C(=O)C3(C)C)o1 [Example 13, 1-(2-chloro-6-fluorobenzyl)-3,3-dimethyl-N-((5-methylfuran-2-yl)methyl)-2-oxoindoline-6-carboxamide] | ≤ 1 | 1 to 10 | > 10 | > 10 | 1 to 10 |  |  |
| Cc1nn(C)c(CN2C(=O)C(C)(C)c3ccc(C(=O)NCc4cc5ccccc5o4)cc32)c1Br [Example 112, N-(benzofuran-2-ylmethyl)-1-((4-bromo-1,3-dimethyl-1H-pyrazol-5-yl)methyl)-3,3-dimethyl-2-oxoindoline-6-carboxamide] | ≤ 1 | ≤ 1 | 1 to 10 | 1 to 10 | ≤ 1 |  |  |

Next, values leading:

| EC50 [1] [µM] | EC50 [2] [µM] | EC50 ([3]; Homo sapiens, THP1-Dual, 20 h) [µM] | EC50 ([4]; Homo sapiens, THP1-Dual, 20 h) [µM] | EC50 [5] [µM] | EC50 [3] [µM] | EC50 [4] [µM] | Structure (SMILES) |
| --- | --- | --- | --- | --- | --- | --- | --- |
| ≤ 1 | 1 to 10 | 1 to 10 | > 10 | 1 to 10 |  |  | CC1(C)C(=O)N(Cc2cccc(Cl)c2)c2cc(C(=O)NCc3c(F)cc(F)cc3F)ccc21 [Example 19, 1-(3-chlorobenzyl)-3,3-dimethyl-2-oxo-N-(2,4,6-trifluorobenzyl)indoline-6-carboxamide] |
| ≤ 1 | 1 to 10 | 1 to 10 | 1 to 10 | 1 to 10 |  |  | Cc1cc(CN2C(=O)C(C)(C)c3ccc(C(=O)NCc4c(F)cc(F)cc4F)cc32)n(C)n1 [Example 82, 1-((1,3-dimethyl-1H-pyrazol-5-yl)methyl)-3,3-dimethyl-2-oxo-N-(2,4,6-trifluorobenzyl)indoline-6-carboxamide] |
| ≤ 1 | 1 to 10 | 1 to 10 | 1 to 10 | 1 to 10 |  |  | Cc1nn(CCO)c(CN2C(=O)C(C)(C)c3ccc(C(=O)NCc4cc5cc(F)ccc5o4)cc32)c1F [Example 119, 1-((4-fluoro-1-(2-hydroxyethyl)-3-methyl-1H-pyrazol-5-yl)methyl)-N-((5-fluorobenzofuran-2-yl)methyl)-3,3-dimethyl-2-oxoindoline-6-carboxamide] |
| ≤ 1 | ≤ 1 | 1 to 10 | 1 to 10 | ≤ 1 |  |  | CCn1nc(C)cc1CN1C(=O)C(C)(C)c2ccc(C(=O)NCc3cc4cc(F)ccc4o3)cc21 [Example 116, 1-((1-ethyl-3-methyl-1H-pyrazol-5-yl)methyl)-N-((5-fluorobenzofuran-2-yl)methyl)-3,3-dimethyl-2-oxoindoline-6-carboxamide] |
| 1 to 10 | 1 to 10 | > 10 | > 10 | 1 to 10 |  |  | Cc1ccc(CNC(=O)c2ccc3c(c2)N(Cc2c(F)cccc2F)C(=O)C3(C)C)o1 [Example 50, 1-(2,6-difluorobenzyl)-3,3-dimethyl-N-((5-methylfuran-2-yl)methyl)-2-oxoindoline-6-carboxamide] |
| 1 to 10 | 1 to 10 |  |  | 1 to 10 | > 10 | > 10 | CC1(Cl)C(=O)N(Cc2cc(F)cc(F)c2)c2cc(C(=O)NCc3c(F)cc(F)cc3F)ccc21 (stereo not shown) [Example 148] |
| ≤ 1 | ≤ 1 | 1 to 10 | 1 to 10 | ≤ 1 |  |  | Cc1nn(C)c(CN2C(=O)C(C)(C)c3ccc(C(=O)NCc4cc5cc(F)ccc5o4)cc32)c1F [Example 115, 1-((4-fluoro-1,3-dimethyl-1H-pyrazol-5-yl)methyl)-N-((5-fluorobenzofuran-2-yl)methyl)-3,3-dimethyl-2-oxoindoline-6-carboxamide] |
| ≤ 1 | 1 to 10 | > 10 | > 10 | 1 to 10 |  |  | COCCn1nc(C)c(F)c1CN1C(=O)C(C)(C)c2ccc(C(=O)NCc3cc4cc(F)ccc4o3)cc21 [Example 118, 1-((4-fluoro-1-(2-methoxyethyl)-3-methyl-1H-pyrazol-5-yl)methyl)-N-((5-fluorobenzofuran-2-yl)methyl)-3,3-dimethyl-2-oxoindoline-6-carboxamide] |
| 1 to 10 | 1 to 10 | > 10 | > 10 | 1 to 10 |  |  | CCC1(OC)C(=O)N(Cc2c(F)cccc2Cl)c2cc(C(=O)NCc3c(F)cc(F)cc3F)ccc21 (stereo not shown) [Example 161, 1-(2-chloro-6-fluorobenzyl)-3-ethyl-3-methoxy-2-oxo-N-(2,4,6-trifluorobenzyl)indoline-6-carboxamide] |
| ≤ 1 | ≤ 1 | 1 to 10 | 1 to 10 | 1 to 10 |  |  | CC1(C)C(=O)N(Cc2ccc(F)cc2)c2cc(C(=O)NCc3c(F)cc(F)cc3F)ccc21 [Example 20, 1-(4-fluorobenzyl)-3,3-dimethyl-2-oxo-N-(2,4,6-trifluorobenzyl)indoline-6-carboxamide] |
| ≤ 1 | ≤ 1 | 1 to 10 | 1 to 10 | ≤ 1 |  |  | CC1(C)C(=O)N(Cc2cccc(F)c2F)c2cc(C(=O)NCc3c(F)cc(F)cc3F)ccc21 [Example 33, 1-(2,3-difluorobenzyl)-3,3-dimethyl-2-oxo-N-(2,4,6-trifluorobenzyl)indoline-6-carboxamide] |
| ≤ 1 | 1 to 10 | 1 to 10 | 1 to 10 | 1 to 10 |  |  | CCn1nc(C)cc1CN1C(=O)C(C)(C)c2ccc(C(=O)NCc3c(F)cc(F)cc3F)cc21 [Example 117, 1-((1-ethyl-3-methyl-1H-pyrazol-5-yl)methyl)-3,3-dimethyl-2-oxo-N-(2,4,6-trifluorobenzyl)indoline-6-carboxamide] |
| ≤ 1 | > 10 | > 10 | > 10 | > 10 |  |  | CCC1(Cl)C(=O)N(Cc2c(F)cccc2Cl)c2cc(C(=O)NCc3c(F)cc(F)cc3F)ccc21 (stereo not shown) [Example 155, 3-chloro-1-(2-chloro-6-fluorobenzyl)-3-ethyl-2-oxo-N-(2,4,6-trifluorobenzyl)indoline-6-carboxamide] |
